Counter-ions that a name gives are not always drawn.
Tests used:
Assay type in all cases: cell-based
[1] = biological target: EGFR(D770_N771insSVD) expressing Ba/F3 stable cell line (Homo sapiens, UniProt P00533, DUP768-770, cells depend on it); experiment: Cellular proliferation (Alamar Blue) assay, EGFR D770_N771insSVD Ba/F3; settings: 72 hr, read-out: D770 IC50
In short: (§1)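 Ba/F3 stable lines (15,000 cells/well, RPMI + 10% FBS) seeded 16–18 h, then treated 72 h at 37 °C with compound, final 10–0.0005 μM in 3-fold dilutions. Viability read by Alamar Blue after 3 h incubation.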

[2] = biological target: EGFR (A767_dupASV) expressing Ba/F3 stable cell line (Homo sapiens, UniProt P00533, DUP767-769, cells depend on it); experiment: Cellular proliferation (Alamar Blue) assay, EGFR A767_dupASV Ba/F3; settings: 72 hr, read-out: A767 IC50
In short: as §1

[3] = system: A431 cells; experiment: Cellular proliferation (Alamar Blue) assay, A431; settings: Homo sapiens, A-431; A431 cells, Alamar Blue, 72 hr; read-out: A431 IC50
[4] = biological target: EGFR (H773insNPH) expressing Ba/F3 stable cell line (Homo sapiens, UniProt P00533, DUP771-773, cells depend on it); experiment: Cellular proliferation (Alamar Blue) assay, EGFR H773insNPH Ba/F3; settings: 72 hr, read-out: NPH IC50
In short: as §1

[5] = biological target: HER2 (A775_G776insYVMA) expressing Ba/F3 stable cell line (Homo sapiens, UniProt P04626, DUP772-775, cells depend on it); experiment: Cellular proliferation (Alamar Blue) assay, HER2 A775_G776insYVMA Ba/F3; settings: 72 hr, read-out: YVMA IC50
In short: as §1

EGFR(D770_N771insSVD) expressing Ba/F3 stable cell line, sequence (P00533 with tags, fused parts or gaps DUP768-770): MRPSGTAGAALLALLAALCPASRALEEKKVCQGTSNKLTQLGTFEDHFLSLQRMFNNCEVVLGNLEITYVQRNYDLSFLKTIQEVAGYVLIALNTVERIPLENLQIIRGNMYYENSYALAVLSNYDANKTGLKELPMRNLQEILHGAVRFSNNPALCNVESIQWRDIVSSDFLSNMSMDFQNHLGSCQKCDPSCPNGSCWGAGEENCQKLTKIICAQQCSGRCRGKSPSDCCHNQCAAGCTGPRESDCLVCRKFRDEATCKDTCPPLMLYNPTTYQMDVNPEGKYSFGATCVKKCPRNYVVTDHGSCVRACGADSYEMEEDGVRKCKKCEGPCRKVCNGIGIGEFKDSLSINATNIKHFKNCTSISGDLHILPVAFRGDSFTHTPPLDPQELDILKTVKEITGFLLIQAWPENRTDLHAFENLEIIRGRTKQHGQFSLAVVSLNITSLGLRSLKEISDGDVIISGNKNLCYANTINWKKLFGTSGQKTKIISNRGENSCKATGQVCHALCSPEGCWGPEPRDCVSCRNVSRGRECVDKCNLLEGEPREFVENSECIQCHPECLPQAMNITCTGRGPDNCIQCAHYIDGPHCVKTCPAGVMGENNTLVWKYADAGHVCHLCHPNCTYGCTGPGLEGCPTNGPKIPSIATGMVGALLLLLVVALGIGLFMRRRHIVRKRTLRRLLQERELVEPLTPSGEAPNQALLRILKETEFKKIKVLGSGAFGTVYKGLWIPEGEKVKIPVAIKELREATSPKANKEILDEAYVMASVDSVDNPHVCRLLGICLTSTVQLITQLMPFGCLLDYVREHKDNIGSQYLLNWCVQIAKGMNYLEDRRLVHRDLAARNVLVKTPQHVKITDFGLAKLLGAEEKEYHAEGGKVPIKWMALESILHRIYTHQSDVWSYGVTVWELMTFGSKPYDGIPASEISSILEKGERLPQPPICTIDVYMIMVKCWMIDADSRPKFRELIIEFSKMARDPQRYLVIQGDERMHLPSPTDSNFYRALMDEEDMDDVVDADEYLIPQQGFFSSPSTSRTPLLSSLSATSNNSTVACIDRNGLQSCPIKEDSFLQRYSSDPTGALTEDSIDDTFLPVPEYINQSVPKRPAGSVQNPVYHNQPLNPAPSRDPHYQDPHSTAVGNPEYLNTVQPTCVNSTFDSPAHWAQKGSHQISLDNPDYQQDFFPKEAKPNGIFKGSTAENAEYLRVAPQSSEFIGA
EGFR (A767_dupASV) expressing Ba/F3 stable cell line, sequence (P00533 with tags, fused parts or gaps DUP767-769): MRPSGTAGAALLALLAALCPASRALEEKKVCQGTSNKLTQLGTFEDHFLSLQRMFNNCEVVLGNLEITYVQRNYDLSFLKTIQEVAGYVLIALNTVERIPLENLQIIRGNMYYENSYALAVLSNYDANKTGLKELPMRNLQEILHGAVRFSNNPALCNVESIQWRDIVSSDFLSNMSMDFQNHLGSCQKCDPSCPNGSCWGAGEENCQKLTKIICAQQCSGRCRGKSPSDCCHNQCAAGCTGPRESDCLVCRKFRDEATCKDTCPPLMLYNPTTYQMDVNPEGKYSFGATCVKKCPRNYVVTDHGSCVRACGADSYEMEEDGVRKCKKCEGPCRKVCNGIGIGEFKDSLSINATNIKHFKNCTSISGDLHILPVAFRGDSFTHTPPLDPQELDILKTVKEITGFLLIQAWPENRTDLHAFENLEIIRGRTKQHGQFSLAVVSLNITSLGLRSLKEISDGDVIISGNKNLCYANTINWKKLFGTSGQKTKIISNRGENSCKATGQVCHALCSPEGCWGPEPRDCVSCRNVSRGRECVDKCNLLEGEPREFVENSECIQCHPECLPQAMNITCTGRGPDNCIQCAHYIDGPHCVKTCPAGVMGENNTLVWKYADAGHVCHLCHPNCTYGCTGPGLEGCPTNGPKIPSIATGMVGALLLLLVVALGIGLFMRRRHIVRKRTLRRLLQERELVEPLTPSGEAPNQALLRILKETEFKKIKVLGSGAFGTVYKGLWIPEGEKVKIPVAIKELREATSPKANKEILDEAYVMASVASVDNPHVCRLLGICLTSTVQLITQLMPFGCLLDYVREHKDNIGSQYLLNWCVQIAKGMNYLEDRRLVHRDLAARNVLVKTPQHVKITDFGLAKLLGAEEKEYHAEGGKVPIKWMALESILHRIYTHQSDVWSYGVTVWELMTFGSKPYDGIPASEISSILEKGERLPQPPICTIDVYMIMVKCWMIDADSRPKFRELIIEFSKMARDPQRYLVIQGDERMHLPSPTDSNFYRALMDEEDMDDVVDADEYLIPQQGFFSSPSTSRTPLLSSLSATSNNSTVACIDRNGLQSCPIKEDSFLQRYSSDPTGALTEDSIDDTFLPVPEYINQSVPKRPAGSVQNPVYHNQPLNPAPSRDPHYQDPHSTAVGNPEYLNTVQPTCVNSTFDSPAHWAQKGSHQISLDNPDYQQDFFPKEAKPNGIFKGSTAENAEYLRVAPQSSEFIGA
HER2 (A775_G776insYVMA) expressing Ba/F3 stable cell line, sequence (P04626 with tags, fused parts or gaps DUP772-775): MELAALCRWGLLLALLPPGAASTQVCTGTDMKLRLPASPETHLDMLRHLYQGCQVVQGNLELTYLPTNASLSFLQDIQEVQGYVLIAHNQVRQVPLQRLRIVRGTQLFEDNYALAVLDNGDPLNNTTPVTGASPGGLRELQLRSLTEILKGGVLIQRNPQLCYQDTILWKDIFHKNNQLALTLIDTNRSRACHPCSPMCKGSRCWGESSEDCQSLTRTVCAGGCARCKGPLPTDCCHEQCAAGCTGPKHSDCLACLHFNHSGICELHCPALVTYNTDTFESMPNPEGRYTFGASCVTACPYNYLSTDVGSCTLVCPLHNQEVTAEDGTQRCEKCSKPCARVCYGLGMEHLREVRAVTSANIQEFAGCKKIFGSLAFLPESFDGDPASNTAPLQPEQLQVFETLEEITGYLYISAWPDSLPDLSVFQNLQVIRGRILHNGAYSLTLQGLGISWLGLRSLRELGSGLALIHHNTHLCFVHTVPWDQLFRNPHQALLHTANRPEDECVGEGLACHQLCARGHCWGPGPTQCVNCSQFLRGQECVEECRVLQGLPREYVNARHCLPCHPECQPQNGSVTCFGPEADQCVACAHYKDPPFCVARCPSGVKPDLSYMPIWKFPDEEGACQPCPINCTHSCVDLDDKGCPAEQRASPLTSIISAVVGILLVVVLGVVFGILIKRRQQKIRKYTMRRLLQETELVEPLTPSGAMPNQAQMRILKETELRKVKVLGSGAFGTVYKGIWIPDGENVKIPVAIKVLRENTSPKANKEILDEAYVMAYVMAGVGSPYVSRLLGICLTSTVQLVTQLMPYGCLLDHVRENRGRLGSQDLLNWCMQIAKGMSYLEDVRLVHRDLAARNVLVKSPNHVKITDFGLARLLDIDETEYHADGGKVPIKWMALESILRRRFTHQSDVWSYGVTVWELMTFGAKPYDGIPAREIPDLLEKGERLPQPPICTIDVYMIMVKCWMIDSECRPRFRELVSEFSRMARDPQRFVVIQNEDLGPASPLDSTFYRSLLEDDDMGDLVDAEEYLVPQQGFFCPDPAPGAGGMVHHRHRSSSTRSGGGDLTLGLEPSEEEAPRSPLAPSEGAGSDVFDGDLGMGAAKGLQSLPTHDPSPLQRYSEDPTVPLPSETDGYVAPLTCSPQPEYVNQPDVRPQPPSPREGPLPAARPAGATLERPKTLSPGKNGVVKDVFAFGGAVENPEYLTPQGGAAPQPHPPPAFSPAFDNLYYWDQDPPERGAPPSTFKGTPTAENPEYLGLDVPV
EGFR (H773insNPH) expressing Ba/F3 stable cell line, sequence (P00533 with tags, fused parts or gaps DUP771-773): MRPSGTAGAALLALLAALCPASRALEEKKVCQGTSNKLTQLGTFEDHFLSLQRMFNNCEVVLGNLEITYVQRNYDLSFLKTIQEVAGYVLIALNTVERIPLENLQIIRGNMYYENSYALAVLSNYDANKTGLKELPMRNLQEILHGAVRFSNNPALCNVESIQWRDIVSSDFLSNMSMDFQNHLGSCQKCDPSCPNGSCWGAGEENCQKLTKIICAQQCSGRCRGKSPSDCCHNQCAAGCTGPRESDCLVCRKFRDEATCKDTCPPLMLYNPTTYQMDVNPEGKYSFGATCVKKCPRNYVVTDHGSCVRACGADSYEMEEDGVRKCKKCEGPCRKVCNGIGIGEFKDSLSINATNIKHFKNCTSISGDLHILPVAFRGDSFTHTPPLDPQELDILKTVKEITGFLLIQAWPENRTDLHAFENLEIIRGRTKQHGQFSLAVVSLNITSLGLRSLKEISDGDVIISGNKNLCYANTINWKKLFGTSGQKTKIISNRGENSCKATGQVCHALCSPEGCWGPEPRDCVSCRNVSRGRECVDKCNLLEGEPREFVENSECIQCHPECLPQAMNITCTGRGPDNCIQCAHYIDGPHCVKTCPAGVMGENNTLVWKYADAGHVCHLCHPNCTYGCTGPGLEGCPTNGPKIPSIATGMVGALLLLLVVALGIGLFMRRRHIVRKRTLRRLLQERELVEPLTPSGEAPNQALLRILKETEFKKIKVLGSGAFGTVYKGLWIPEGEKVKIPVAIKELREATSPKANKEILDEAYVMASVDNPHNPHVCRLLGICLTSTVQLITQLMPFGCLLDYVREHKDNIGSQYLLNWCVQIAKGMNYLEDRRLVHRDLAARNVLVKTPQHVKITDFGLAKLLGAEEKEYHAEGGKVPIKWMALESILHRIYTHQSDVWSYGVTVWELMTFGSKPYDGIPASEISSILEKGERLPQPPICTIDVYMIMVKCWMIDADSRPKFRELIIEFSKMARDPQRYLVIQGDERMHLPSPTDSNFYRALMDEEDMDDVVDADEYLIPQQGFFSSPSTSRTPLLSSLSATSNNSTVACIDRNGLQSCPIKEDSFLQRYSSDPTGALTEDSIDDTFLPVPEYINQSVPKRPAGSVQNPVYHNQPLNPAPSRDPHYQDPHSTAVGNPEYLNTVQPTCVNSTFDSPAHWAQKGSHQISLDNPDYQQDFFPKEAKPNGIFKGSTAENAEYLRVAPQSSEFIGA

| SMILES | GI50 [1] [nM] | GI50 [2] [nM] | IC50 [3] [nM] | GI50 [4] [nM] | GI50 [5] [nM] |
| --- | --- | --- | --- | --- | --- |
| C=CC(=O)Nc1cccc(Oc2nc(Nc3cnn(C)c3)ncc2-c2ccc(C(F)(F)F)nc2)c1 [Compound 108, N-(3-((2-((1-methyl-1H-pyrazol-4-yl)amino)-5-(6-(trifluoromethyl)pyridin-3-yl)pyrimidin-4-yl)oxy)phenyl)acrylamide] | 104 | 56 | 341 | 294 | 300 |
| C=CC(=O)Nc1cccc(Oc2nc(Nc3cnn(C)c3)ncc2-c2ccc(F)nc2)c1 [Compound 109, N-(3-((5-(6-fluoropyridin-3-yl)-2-((1-methyl-1H-pyrazol-4-yl)amino)pyrimidin-4-yl)oxy)phenyl)acrylamide] | 100 | 53 | 613 | 112 | 344 |
| C=CC(=O)Nc1ccc(F)c(Nc2nc(Nc3cn(C)nc3Cl)ncc2-c2ccc(C(F)(F)F)cc2)c1 [Compound 112, N-(3-((2-((3-chloro-1-methyl-1H-pyrazol-4-yl)amino)-5-(4-(trifluoromethyl)phenyl)pyrimidin-4-yl)amino)-4-fluorophenyl)acrylamide trifluoroacetate] | 93 | 80 | 88 | 138 | 288 |
| C=CC(=O)Nc1ccc(F)c(Nc2nc(Nc3cnn(C)c3)ncc2-c2cncc(N(C)C)c2)c1 [Compound 116, N-(3-((5-(5-(dimethylamino)pyridin-3-yl)-2-((1-methyl-1H-pyrazol-4-yl)amino)pyrimidin-4-yl)amino)-4-fluorophenyl)acrylamide trifluoroacetate] | 108 | 94 | 108 | 136 | 251 |
| C=CC(=O)Nc1ccc(F)c(Nc2nc(Nc3cnn(C)c3)ncc2-c2ccnc(Cl)c2)c1 [Compound 117, N-(3-((5-(2-chloropyridin-4-yl)-2-((1-methyl-1H-pyrazol-4-yl)amino)pyrimidin-4-yl)amino)-4-fluorophenyl)acrylamide] | 86 | 57 | 85 | 107 | 160 |
| C=CC(=O)Nc1ccc(F)c(Nc2nc(Nc3cn(C)nc3C)ncc2-c2ccc(C(F)(F)F)cc2)c1 [Compound 135, N-(3-((2-((1,3-dimethyl-1H-pyrazol-4-yl)amino)-5-(4-(trifluoromethyl)phenyl)pyrimidin-4-yl)amino)-4-fluorophenyl)acrylamide trifluoroacetate] | 120 | 257 | 94 | 235 | 413 |
| C=CC(=O)Nc1ccc(F)c(Nc2nc(Nc3cnn(C4COC4)c3)ncc2-c2ccc(C(F)(F)F)cc2)c1 [Compound 139, N-(4-fluoro-3-((2-((1-(oxetan-3-yl)-1H-pyrazol-4-yl)amino)-5-(4-(trifluoromethyl)phenyl)pyrimidin-4-yl)amino)phenyl)acrylamide] | 116 | 125 | > 10000 | 148 | 690 |
| C=CC(=O)Nc1ccc(F)c(Nc2nc(Nc3cnn(C)c3)ncc2-c2cncc(OC)c2)c1 [Compound 141, N-(4-fluoro-3-((5-(5-methoxypyridin-3-yl)-2-((1-methyl-1H-pyrazol-4-yl)amino)pyrimidin-4-yl)amino)phenyl)acrylamide] | 101 | 100 | 141 | 49 | 201 |
| C=CC(=O)Nc1ccc(F)c(Nc2nc(Nc3cnn(C)c3)ncc2-c2cncnc2)c1 [Compound 147, N-(4-fluoro-3-((2-((1-methyl-1H-pyrazol-4-yl)amino)-[5,5′-bipyrimidin]-4-yl)amino)phenyl)acrylamide trifluoroacetate] | 105 | 101 | 466 | 68 | 100 |
| C=CC(=O)Nc1cccc(Oc2nc(Nc3cnn(C)c3)ncc2-c2ccc(C(F)(F)F)cc2)c1 [Compound 151, N-(3-((2-((1-methyl-1H-pyrazol-4-yl)amino)-5-(4-(trifluoromethyl)phenyl)pyrimidin-4-yl)oxy)phenyl)acrylamide] | 105 | 129 | 375 | 226 | 354 |
| C=CC(=O)Nc1ccc(F)c(Oc2nc(Nc3cnn(C)c3)ncc2-c2ccc(C(F)(F)F)cc2)c1 [Compound 152, N-(4-fluoro-3-((2-((1-methyl-1H-pyrazol-4-yl)amino)-5-(4-(trifluoromethyl)phenyl)pyrimidin-4-yl)oxy)phenyl)acrylamide] | 173 | 300 | 3500 | 407 | 651 |

Stronger by GI50 [1], values ahead:

| GI50 [1] [nM] | GI50 [2] [nM] | IC50 [3] [nM] | GI50 [4] [nM] | GI50 [5] [nM] | SMILES |
| --- | --- | --- | --- | --- | --- |
| 16 | 35 | 94 | 25 | 38 | C=CC(=O)Nc1ccc(F)c(Nc2nc(Nc3cnn(C)c3)ncc2-c2ccc(C(F)F)nc2)c1 [Compound 106, N-(3-((5-(6-(difluoromethyl)pyridin-3-yl)-2-((1-methyl-1H-pyrazol-4-yl)amino)pyrimidin-4-yl)amino)-4-fluorophenyl)acrylamide] |
| 48 | 41 | 27 | 103 | 138 | C=CC(=O)Nc1cccc(Nc2nc(Nc3cnn(C)c3)ncc2-c2ccc(C(F)(F)F)cc2)c1 [Compound 111, N-(3-((2-((1-methyl-1H-pyrazol-4-yl)amino)-5-(4-(trifluoromethyl)phenyl)pyrimidin-4-yl)amino)phenyl)acrylamide] |
| 16 | 39 | 100 | 30 | 25 | C=CC(=O)Nc1cccc(Nc2nc(Nc3cnn(C)c3)ncc2-c2cccc(F)c2)c1 [Compound 115, N-(3-((5-(3-fluorophenyl)-2-((1-methyl-1H-pyrazol-4-yl)amino)pyrimidin-4-yl)amino)phenyl)acrylamide trifluoroacetate] |
| 32 | 34 | 22 | 58 | 269 | C=CC(=O)Nc1ccc(F)c(Nc2nc(Nc3cnn(C)c3)ncc2-c2ccc(OC(F)F)cc2)c1 [Compound 140, N-(3-((5-(4-(difluoromethoxy)phenyl)-2-((1-methyl-1H-pyrazol-4-yl)amino)pyrimidin-4-yl)amino)-4-fluorophenyl)acrylamide] |
| 16 | 34 | 169 | 24 | 50 | C=CC(=O)Nc1cccc(Nc2nc(Nc3cnn(C)c3)ncc2-c2ccc(OC(F)F)cc2)c1 [Compound 142, N-(3-((5-(4-(difluoromethoxy)phenyl)-2-((1-methyl-1H-pyrazol-4-yl)amino)pyrimidin-4-yl)amino)phenyl)acrylamide trifluoroacetate] |
| 37 | 70 | 122 | 101 | 38 | C=CC(=O)Nc1cccc(Nc2nc(Nc3cnn(C)c3)ncc2-c2cncc(C(F)F)c2)c1 [Compound 144, N-(3-((5-(5-(difluoromethyl)pyridin-3-yl)-2-((1-methyl-1H-pyrazol-4-yl)amino)pyrimidin-4-yl)amino)phenyl)acrylamide trifluoroacetate] |

— patent US12686673B2 (Blueprint Medicines Corporation, priority 2020, dated 2026)
